Test results as given in patent publication US10188634B2, “3-(3H-imidazo[4,5-C]pyridin-2-yl)-1 H-pyrazolo[4,3-B]pyridines and therapeutic uses thereof” (Samumed, LLC, priority 2015, dated 2019).

How the values were obtained:
[1] = test system: Wnt activity (Sp5-Luc reporter, human Sp5 promoter with eight TCF/LEF binding sites) in SW480 colon carcinoma cells; test: Screening assay for Wnt activity: Sp5-Luc reporter gene assay in SW480 cells; format: cell-based; conditions: for inhibition at 10 µM: read-out: percent inhibition at 10 μM (given for EC50 of >10 μM); for EC50: 10-point dose-response starting from 10 μM, overnight incubation
In short: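 Luminescence (BrightGlo) read after overnight 37 °C exposure of Sp5-Luc SW480 reporter cells, 4,000/well in 1% FBS, to compound dosed 1:3 over 10 points from 10 μM with 0.1% DMSO. Values normalized to DMSO-only cells, fitted with variable-slope four-parameter model; where EC50 exceeds 10 μM, % inhibition at 10 μM reported.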

[2] = test system: primary human mesenchymal stem cells (hMSCs); test: Induction of chondrogenesis in primary human mesenchymal stem cells (hMSCs), nodule imaging with Rhodamine B / Nile Red; format: cell-based; conditions: for Emax: hMSCs chondrogenesis, TGF-β3 (10 ng/mL) as positive control, read-out: Max. Activity as % TGF-β3 activity; for EC50: hMSCs, concentration required to induce 50% levels of chondrogenesis vs TGF-β3 positive control, read-out: Conc (nM) of 50% TGF-β3 activity
In short: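 Passage 3-6 hMSCs cultured 6 days at 37° C in incomplete chondrogenic induction medium with compound (2700-10 nM, 96-well; 5000-2.2 nM, 384-well; 0.03% DMSO), TGF-β3 10 ng/mL as positive control. Fixed nodules stained with Rhodamine B/Nile Red, imaged at 531/625 nm; nodule area normalized to DMSO wells for EC50, maximum activity and dose at maximum.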

SMILES	inhibition at 10 µM [1]	EC50 [1]	Emax [2]	EC50 [2]
NC1CN(c2cncc(-c3ccc4[nH]nc(-c5nc6c(-c7cccc(F)c7)cncc6[nH]5)c4n3)n2)C1 [Compound 482, 1-(6-(3-(7-(3-Fluorophenyl)-3H-imidazo[4,5-c]pyridin-2-yl)-1H-pyrazolo[4,3-b]pyridin-5-yl)pyrazin-2-yl)azetidin-3-amine]	21%	> 10000 nM	56%	7 nM
Fc1cccc(-c2cncc3[nH]c(-c4n[nH]c5ccc(-c6cncc(OC7CCNCC7)c6)nc45)nc23)c1 [Compound 484, 3-(7-(3-Fluorophenyl)-3H-imidazo[4,5-c]pyridin-2-yl)-5-(5-(piperidin-4-yloxy)pyridin-3-yl)-1H-pyrazolo[4,3-b]pyridine]	24%	> 10000 nM	82%	7 nM
Oc1cncc(-c2ccc3[nH]nc(-c4nc5c(-c6cccc(F)c6)cncc5[nH]4)c3n2)c1 [Compound 489, 5-(3-(7-(3-Fluorophenyl)-3H-imidazo[4,5-c]pyridin-2-yl)-1H-pyrazolo[4,3-b]pyridin-5-yl)pyridin-3-ol]	27%	> 10000 nM	54%	21 nM
Fc1cccc(-c2cncc3[nH]c(-c4n[nH]c5ccc(-c6cnccn6)nc45)nc23)c1 [Compound 492, 3-(7-(3-Fluorophenyl)-3H-imidazo[4,5-c]pyridin-2-yl)-5-(pyrazin-2-yl)-1H-pyrazolo[4,3-b]pyridine]	13%	> 10000 nM	67%	2 nM
CN(C)CC(=O)Nc1cncc(-c2ccc3[nH]nc(-c4nc5c(-c6cccc(F)c6)cncc5[nH]4)c3n2)c1 [Compound 925, 2-(Dimethylamino)-N-(5-(3-(7-(3-fluorophenyl)-3H-imidazo[4,5-c]pyridin-2-yl)-1H-pyrazolo[4,3-b]pyridin-5-yl)pyridin-3-yl)acetamide]	23%	> 10000 nM	52%	21 nM
COc1cccc(-c2cncc3[nH]c(-c4n[nH]c5ccc(-c6cccnc6)nc45)nc23)c1 [Compound 949, 3-(7-(3-Methoxylphenyl)-3H-imidazo[4,5-c]pyridin-2-yl)-5-(pyridin-3-yl)-1H-pyrazolo[4,3-b]pyridine]	18.2%	> 10000 nM	59%	30 nM
COc1cccc(-c2cncc3[nH]c(-c4n[nH]c5ccc(-c6cncc(NC(=O)C7CCCCC7)c6)nc45)nc23)c1 [Compound 967, N-(5-(3-(7-(3-Methoxylphenyl)-3H-imidazo[4,5-c]pyridin-2-yl)-1H-pyrazolo[4,3-b]pyridin-5-yl)pyridin-3-yl)cyclohexanecarboxamide]	0%	> 10000 nM	80%	10 nM
Cc1ncc(-c2ccc3[nH]nc(-c4nc5c(-c6cccc(F)c6)cncc5[nH]4)c3n2)s1 [Compound 1081, 5-(3-(7-(3-Fluorophenyl)-3H-imidazo[4,5-c]pyridin-2-yl)-1H-pyrazolo[4,3-b]pyridin-5-yl)-2-methylthiazole]	38%	> 10000 nM	81%	7 nM
Cc1cnc(-c2ccc3[nH]nc(-c4nc5c(-c6cccc(F)c6)cncc5[nH]4)c3n2)s1 [Compound 1082, 2-(3-(7-(3-Fluorophenyl)-3H-imidazo[4,5-c]pyridin-2-yl)-1H-pyrazolo[4,3-b]pyridin-5-yl)-5-methylthiazole]	27%	> 10000 nM	45%	
